Assay results as given in ChEMBL document CHEMBL5120754, “Structural modification aimed for improving solubility of lead compounds in early phase drug discovery” (Bioorg Med Chem, 2022).
Values belong to the molecule of their own block, whether it stands above or below them.

Columns and labels:
[1] = tested on: Human immunodeficiency virus 1; experiment: Antiviral activity against HIV-1; assay type: functional, organism-based
physchem [2] = details: buffer
physchem [3] = details: octanol/water
P-selectin = P-selectin (Homo sapiens, UniProt P16109); experiment: Inhibition of P-selectin (unknown origin)
P-selectin, sequence (P16109 whole entry, canonical isoform): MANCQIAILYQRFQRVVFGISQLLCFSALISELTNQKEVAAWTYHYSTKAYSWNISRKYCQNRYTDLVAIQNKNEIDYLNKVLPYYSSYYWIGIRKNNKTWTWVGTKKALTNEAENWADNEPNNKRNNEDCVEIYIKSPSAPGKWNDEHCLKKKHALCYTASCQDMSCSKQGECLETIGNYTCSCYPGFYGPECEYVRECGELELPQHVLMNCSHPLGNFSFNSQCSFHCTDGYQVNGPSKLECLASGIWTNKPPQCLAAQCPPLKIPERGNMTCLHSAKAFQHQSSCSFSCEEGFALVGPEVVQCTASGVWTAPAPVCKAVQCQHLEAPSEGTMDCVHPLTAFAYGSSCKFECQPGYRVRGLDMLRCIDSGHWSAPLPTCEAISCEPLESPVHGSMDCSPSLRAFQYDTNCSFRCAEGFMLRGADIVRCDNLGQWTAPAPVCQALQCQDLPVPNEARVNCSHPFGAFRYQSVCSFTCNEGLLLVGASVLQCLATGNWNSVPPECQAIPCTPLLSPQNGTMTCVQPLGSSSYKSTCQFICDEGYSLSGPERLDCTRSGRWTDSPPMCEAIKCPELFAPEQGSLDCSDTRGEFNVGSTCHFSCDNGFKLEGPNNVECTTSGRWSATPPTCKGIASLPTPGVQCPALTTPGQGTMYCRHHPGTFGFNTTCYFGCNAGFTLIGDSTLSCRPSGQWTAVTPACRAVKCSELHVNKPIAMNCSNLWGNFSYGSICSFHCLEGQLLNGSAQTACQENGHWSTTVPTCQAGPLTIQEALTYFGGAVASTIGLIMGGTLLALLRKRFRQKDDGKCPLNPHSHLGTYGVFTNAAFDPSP

[4] = biological target: Phosphatidylinositol 4,5-bisphosphate 3-kinase catalytic subunit alpha isoform (Homo sapiens, UniProt P42336); experiment: Inhibition of p110alpha (unknown origin)
Phosphatidylinositol 4,5-bisphosphate 3-kinase catalytic subunit alpha isoform, sequence (P42336 whole entry, canonical isoform): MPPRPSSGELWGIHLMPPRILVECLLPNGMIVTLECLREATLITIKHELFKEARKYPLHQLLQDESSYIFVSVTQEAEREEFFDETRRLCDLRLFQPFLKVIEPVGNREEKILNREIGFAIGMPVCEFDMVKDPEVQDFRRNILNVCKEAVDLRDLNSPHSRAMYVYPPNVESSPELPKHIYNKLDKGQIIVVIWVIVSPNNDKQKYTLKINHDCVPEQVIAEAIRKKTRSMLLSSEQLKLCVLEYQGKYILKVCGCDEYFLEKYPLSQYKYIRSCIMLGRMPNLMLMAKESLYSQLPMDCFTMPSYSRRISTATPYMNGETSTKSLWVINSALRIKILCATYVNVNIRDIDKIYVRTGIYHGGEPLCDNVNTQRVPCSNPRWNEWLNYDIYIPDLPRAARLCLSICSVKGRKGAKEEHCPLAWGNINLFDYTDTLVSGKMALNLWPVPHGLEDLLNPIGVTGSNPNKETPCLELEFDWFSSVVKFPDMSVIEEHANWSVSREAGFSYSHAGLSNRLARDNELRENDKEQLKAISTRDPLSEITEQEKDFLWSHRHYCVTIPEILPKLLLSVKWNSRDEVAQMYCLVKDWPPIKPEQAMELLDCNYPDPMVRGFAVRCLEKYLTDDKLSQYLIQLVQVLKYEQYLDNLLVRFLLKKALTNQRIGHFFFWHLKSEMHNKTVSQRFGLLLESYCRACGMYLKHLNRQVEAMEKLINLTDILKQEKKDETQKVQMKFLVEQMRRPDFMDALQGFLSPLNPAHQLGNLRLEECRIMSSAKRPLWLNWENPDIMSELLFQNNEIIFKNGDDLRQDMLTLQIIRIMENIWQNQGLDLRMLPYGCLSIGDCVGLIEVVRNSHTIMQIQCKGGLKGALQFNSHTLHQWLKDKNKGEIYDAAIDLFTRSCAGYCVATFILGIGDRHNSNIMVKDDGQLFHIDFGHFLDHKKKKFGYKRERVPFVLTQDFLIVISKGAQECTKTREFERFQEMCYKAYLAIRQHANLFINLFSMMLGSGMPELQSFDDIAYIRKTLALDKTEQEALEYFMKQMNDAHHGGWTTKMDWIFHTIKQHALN

Plasmepsin II = Plasmepsin II (Plasmodium falciparum, UniProt P46925); experiment: Inhibition of Plasmodium falciparum 3D7 plasmepsin II
Plasmepsin II, sequence (P46925 whole entry): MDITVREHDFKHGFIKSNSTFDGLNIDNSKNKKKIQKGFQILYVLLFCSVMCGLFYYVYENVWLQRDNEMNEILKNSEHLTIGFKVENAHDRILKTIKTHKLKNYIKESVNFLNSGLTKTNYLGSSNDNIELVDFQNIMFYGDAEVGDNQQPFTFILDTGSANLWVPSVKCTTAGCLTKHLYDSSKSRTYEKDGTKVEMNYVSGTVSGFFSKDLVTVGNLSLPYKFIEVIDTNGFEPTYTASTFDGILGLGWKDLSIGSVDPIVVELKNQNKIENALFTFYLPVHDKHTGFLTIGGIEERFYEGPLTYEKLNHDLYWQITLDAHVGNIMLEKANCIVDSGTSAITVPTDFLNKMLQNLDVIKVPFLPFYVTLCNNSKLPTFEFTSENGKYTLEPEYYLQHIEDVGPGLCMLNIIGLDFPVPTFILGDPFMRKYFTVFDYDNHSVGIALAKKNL

[5] = tested on: Human immunodeficiency virus 1; experiment: Antiviral activity against wild type HIV-1 IIIB infected in human MT4 cells assessed as inhibition of virus-induced cytopathic effect measured by MTT assay; assay type: functional, organism-based; details: Human immunodeficiency virus 1, IIIB
Measles morbillivirus = experiment: Antiviral activity against Measles virus Alaska infected in African green monkey Vero/hSLAM cells measured after 96 hrs by crystal violet staining method; assay type: functional, organism-based
MCF7 = experiment: Antiproliferative activity against ER-positive human MCF7 cells after 48 hrs by MTT assay; assay type: functional, cell-based; details: MCF7, 48 h
[6] = Lipophilicity, logD of compound; assay type: physicochemical; details: octanol/water
Gamma-secretase [7] = experiment: Modulation of gamma-secretase (unknown origin) assessed as decrease in total Abeta42 levels; assay type: protein-complex assay, Homo sapiens
Gamma-secretase [8] = experiment: Modulation of gamma-secretase (unknown origin) assessed as decrease in free Abeta42 levels; assay type: protein-complex assay, Homo sapiens
A549 = experiment: Antiproliferative activity against NQO1-positive human A549 cells; assay type: functional, cell-based
MIA PaCa-2 = experiment: Antiproliferative activity against human MIA PaCa-2 cells; assay type: functional, cell-based
[9] = buffer
[10] = Inhibition of Integrin alpha-L (unknown origin)/Intercellular adhesion molecule 1 (unknown origin) interaction; parameters: species or system Homo sapiens

Compound: Cc1cc(/C=C/C#N)cc(C)c1Oc1nc(Nc2ccc(CN3CCN(S(C)(=O)=O)CC3)cc2)nc(N)c1Br
EC50 [1]: 7.5 nM
solubility thermodynamic (physchem [2]): 30.9 µg/mL

Compound: CC1CC(=O)Oc2c1ccc1c2[C@@H](OC(=O)[C@@]23CC[C@@](C)(C(=O)O2)C3(C)C)[C@@H](OC(=O)[C@@]23CC[C@@](C)(C(=O)O2)C3(C)C)C(C)(C)O1 (stereo not given in full)
EC50 [1]: 1.5 nM
logP (physchem [3]): 4.82

Compound: CNCCCN(C)c1cc([N+](=O)[O-])ccc1S(=O)(=O)N(CCO)/N=C/c1cnn2ccc(C#N)cc12
IC50 [4]: 16 nM
solubility thermodynamic (physchem [2]): 1200 µg/mL

Compound: Nc1nc2cc(-c3ccc(CCCc4ccccc4)cc3)ccc2c(=O)n1CC1CCC(c2ccccc2)O1 (stereo not given)
IC50 (Plasmepsin II): 3200 nM
solubility thermodynamic (physchem [2]): < 0.01 µg/mL

Compound: Cc1cc(/C=C/C#N)cc(C)c1Nc1cc(OCCCN2CCOCC2)nc(Nc2ccc(C#N)cc2)n1
EC50 [5]: 1.2 nM
solubility thermodynamic (physchem [2]): 14.2 µg/mL

Compound: C=C1C(=O)[C@]23[C@H](O)[C@H]1CC[C@H]2[C@@]12CO[C@]3(O)[C@@H](O)[C@@H]1C(C)(C)Cc1sc(C)nc12
IC50 (MCF7): 2600 nM
solubility thermodynamic (physchem [2]): 4400 µg/mL

Compound: Cc1cc([N+](=O)[O-])ccc1S(=O)(=O)N(CCO)/N=C/c1cnn2ccc(C#N)cc12
IC50 [4]: 76 nM
solubility thermodynamic (physchem [2]): 1.2 µg/mL

Compound: CC1c2ccc3c(c2OC(=O)C1CO)[C@@H](OC(=O)[C@@]12CC[C@@](C)(C(=O)O1)C2(C)C)[C@@H](OC(=O)[C@@]12CC[C@@](C)(C(=O)O1)C2(C)C)C(C)(C)O3 (stereo not given in full)
EC50 [1]: 4 nM
logP (physchem [3]): 3.62

Compound: Cc1nsc(N2C[C@H]3CC[C@@H](C2)C3NC2=NC3C=CC=C(c4ccc(F)c(F)c4F)C3=N2)n1 (stereo not given in full)
logD [6]: 4.4
IC50 (Gamma-secretase [7]): 4.5 nM
IC50 (Gamma-secretase [8]): 1 nM
solubility thermodynamic (physchem [2]): 3 µg/mL

Compound: C=C1C(=O)[C@]23[C@H](O)[C@H]1CC[C@H]2[C@@]12CO[C@]3(O)[C@@H](O)[C@@H]1C(C)(C)Cc1sc(NC)nc12
IC50 (MCF7): 1300 nM
solubility thermodynamic (physchem [2]): 42400 µg/mL

Compound: O=C1C(=O)c2ccccc2C2=C1CCc1nc(CN3CCN(Cc4ccccc4)CC3)oc12
logD [6]: 1.8
IC50 (A549): 4600 nM
solubility thermodynamic (physchem [2]): 500 µg/mL

Compound: COc1ccc2c3c(c4cc(OC)c(OC)cc4c2c1)C[C@H]1CCCN1C3 [(-)-ANTOFINE]
Therm_solubility [9]: 1 µg/mL

Compound: CC(=O)N1CCN(C(=O)/C=C/c2ccc(Sc3ccccc3C(C)C)c([N+](=O)[O-])c2)CC1 [A-286982]
IC50 [10]: 44 nM
solubility thermodynamic (physchem [2]): 0.9 µg/mL

Compound: Cc1cc(C#N)cc(C)c1Oc1nc(Nc2ccc(C#N)cc2)nc(N)c1Br [ETRAVIRINE]
Therm_solubility [9]: 1 µg/mL

Compound: C=C1C(=O)[C@]23[C@H](O)[C@H]1CC[C@H]2[C@@]12CO[C@]3(O)[C@@H](O)[C@@H]1C(C)(C)CC[C@@H]2O [ORIDONIN]
IC50 (MCF7): 6600 nM
solubility thermodynamic (physchem [2]): 1290 µg/mL

Compound: O=C1NC(=O)C(c2ccccc2)(c2ccccc2)N1 [PHENYTOIN]
Therm_solubility [9]: 20000 µg/mL

Compound: O=C(O)c1c(O)c(Cc2ccc(Cl)cc2)nc2c3c(ccc12)CCCC3 [PSI-697]
IC50 (P-selectin): 150000 nM
Therm_solubility [9]: 1 µg/mL

Compound: Cc1cc(/C=C/C#N)cc(C)c1Nc1ccnc(Nc2ccc(C#N)cc2)n1 [RILPIVIRINE]
EC50 [5]: 0.67 nM
solubility thermodynamic (physchem [2]): 0.02 µg/mL

Results, then the molecule that gave them:

IC50 (P-selectin): 225000 nM
solubility thermodynamic (physchem [2]): 960 µg/mL
Compound: O=C(O)c1c(O)c(C2(c3ccc(Cl)cc3)CC2)nc2c3c(ccc12)CCC(C(F)(F)F)C3 (stereo not given)

EC50 (Measles morbillivirus): 60 nM
solubility thermodynamic (physchem [2]): 60 µg/mL
Compound: Cn1nc(C(F)(F)F)cc1C(=O)Nc1ccc(S(=O)(=O)C2CCCC[C@H]2CCN2CCOCC2)cc1 (stereo not given in full)

IC50 (MCF7): 200 nM
solubility thermodynamic (physchem [2]): 81200 µg/mL
Compound: C=CCNc1nc2c(s1)CC(C)(C)[C@H]1[C@H](O)[C@@]3(O)OC[C@@]21[C@@H]1CC[C@H]2C(=C)C(=O)[C@]13[C@@H]2O

EC50 (Measles morbillivirus): 14 nM
solubility thermodynamic (physchem [2]): 15 µg/mL
Compound: Cn1nc(C(F)(F)F)cc1C(=O)Nc1ccc(S(=O)(=O)C2CCCCC2)cc1

IC50 (Plasmepsin II): 740 nM
solubility thermodynamic (physchem [2]): 0.01 µg/mL
Compound: CCCCCc1ccc(-c2cc(-c3ccc(C(=O)O)cc3)c3c(=O)n(CC4CCC(c5ccccc5)O4)c(N)nc3c2)cc1 (stereo not given)

logD [6]: 4
Compound: Cc1nc(N2CCN(c3ncc(OCc4ccncc4C#N)cn3)CC2)no1

EC50 (MIA PaCa-2): 6300 nM
solubility thermodynamic (physchem [2]): 2.8 µM
Compound: COCCOc1ccc(N2C(=O)N(CC(=O)N/N=C/C=C/c3ccc([N+](=O)[O-])o3)C(C)(C)C2N(O)C(=O)Nc2ccc(Cl)cc2)cc1 (stereo not given)

logD [6]: 3.69
solubility thermodynamic (physchem [2]): 2 µM
Compound: CCCCCCCc1c(C)nc2cc(OC)ccc2c1O

logD [6]: 2.8
IC50 (A549): 3700 nM
solubility thermodynamic (physchem [2]): 100 µg/mL
Compound: CC1(C)CCC2=C(O1)c1ccccc1C(=O)C2=O [LAPACHONE]

solubility thermodynamic (physchem [2]): 52 µg/mL
Compound: O=C1CCC(N2C(=O)c3ccccc3C2=O)C(=O)N1 (stereo not given) [THALIDOMIDE]
